In patent US5187160A, “Cephem compound” (Fujisawa Pharmaceutical Co., Ltd., priority 1989, dated 1993) one finds MIC data, which are given here for 1 compound.

Structures are written as SMILES. Structures can show the parent of a compound that is named as a salt.

This test has as its system P. aeruginosa 26. Description: In vitro antibacterial activity, two-fold agar-plate dilution method (MIC). The test is classed as cell-based. The note with it: Pseudomonas aeruginosa, heart infusion agar, 10^8 viable cells per ml, 37° C. for 20 hours, read-out: MIC (minimal inhibitory concentration). The protocol:
Now in order to show the utility of the object compound [I], the test data on MIC (minimal inhibitory concentration) of representative compound [I] of this invention is shown in the following.
In vitro antibacterial activity was determined by the two-fold agar-plate dilution method as described below.
One loopful of an overnight culture of each test strain in Trypticase-soy broth (10^8 viable cells per ml) was streaked on heart infusion agar (HI-agar) containing graded concentrations of representative test compound, and the minimal inhibitory concentration (MIC) was expressed in terms of μg/ml after incubation at 37° C. for 20 hours.

`CCON=C(C(=O)NC1C(=O)N2C(C(=O)[O-])=C(C[n+]3ccc(N)n3CCO)CSC12)c1csc(N)n1` (stereo not drawn) [Example 2, Sulfuric acid salt of 7β-[2-(2-aminothiazol-4-yl)-2-ethoxyiminoacetamido]-3-[3-amino-2-(2-hydroxyethyl)-1-pyrazolio]methyl-3-cephem-4-carboxylate (syn isomer)]: the MIC came out at 1.56 µg/mL.
